According to publication PMC4964431, “Discovery of a Potential HER2 Inhibitor from Natural Products for the Treatment of HER2-Positive Breast Cancer” (International Journal of Molecular Sciences, 2016):
“Also recorded” adds a separate entry of the source.

How the values were obtained:
[1] = test system: HER2-overexpressing BT474 cell line; assay: Cell proliferation inhibition, CCK-8; format: cell-based; settings: Homo sapiens, BT-474; BT474, 48 h, CCK-8, mean ± SD
Procedure: (§1) All cells were obtained from ATCC (Manassas, VA, USA). The HER2-overexpression SKBR3 cell line and BT474 cell line were cultured in RPMI (Roswell Park Memorial Institute medium) 1640 medium and supplemented with 10% FBS (fetal bovine serum). In addition, 100 U/mL of Penicillin and Streptomycin were added. The cell cultures were maintained at 37 °C in a humidified atmosphere of 5% CO2. Cells were seeded at density 2 × 10^4/mL in 96-well plates per well. The medium was removed after seeding 24 h. The compounds were dissolved in DMSO (dimethyl sulfoxide) and diluted with medium to different concentrations. Then, 20 µL of the selected compounds solution were added in 96-well plates, and incubation continued for 48 h at 37 °C in a humidified atmosphere of 5% CO2. After that, the medium was removed, 90 µL of fresh medium and 10 μL of CCK-8 [54] (Dojindo Molecular Technologies Inc., Kumamoto, Japan) was added to each well and incubated for additional half hour. The activity was measured by microplate reader. Graph Pad Prism 5.0 was used to calculated the IC50 values. The normal breast cells (Hs578Bst) were cultured the same as SKBR3 cells. Cell viability was measured by the CCK-8 assay as previously described.

[2] = test system: HER2-overexpressing SKBR3 cell line; assay: Cell proliferation inhibition, CCK-8; format: cell-based; settings: Homo sapiens, SK-BR-3; SKBR3, 48 h, CCK-8, mean ± SD
Procedure: as §1

HER2 kinase = molecular target: T1, HER2 kinase (Homo sapiens, UniProt P04626); assay: In vitro HER2 kinase inhibition assay (Invitrogen kit PV3366); format: biochemical; settings: HER2 0.20 μg/mL, mean ± SD, read-out: Enzymatic IC50
T1 construct: purchased Invitrogen PV3366
Procedure: The compounds were tested for HER2 kinase inhibition abilities using an HER2 assay kit (Invitrogen, Carlsbad, CA, USA, PV3366). The kinase kit was obtained from Invitrogen; all compounds were purchased from Thermo Electron Corporation (Walthan, MA, USA). The concentrations of HER2 were set as 0.20 μg/mL. The concentration of selected compounds was set as six gradients (0.0001–10 μM) in DMSO. Firstly, 2.5 μL of ATP solution and 2.5 μL of compound solution was added to the 5.0 μL substrate peptide. Then, the mixture solution on the plate was incubated for 1 h at 25 °C. Next, 5 μL of development solution was added to the well, and the plate was incubated for 1 h at 25 °C. To terminate the reaction, 5 μL of stop reagent was added to plate. The Infinite M100 Pro multi-label reader (Tecan, Männedorf, Switzerland) was used to measure the activity. Graph Pad Prism 5.0 (Graph Pad Software, San Diego, CA, USA) was used to calculate the IC50 values.

[3] = test system: normal breast cells (Hs578Bst); assay: Normal breast cell viability, CCK-8; format: cell-based; settings: different concentrations, 24 h of treatment
Procedure: Three compounds (cell inhibition IC50 values < 50 μM) were further tested on the normal breast cell (Hs578Bst) to study the effect on cell proliferation and thus verify the toxicity of normal cells. CCK-8 (Cell Counting kit-8) assays were utilized to determine the effects of different concentrations of three compounds on normal breast cell viability after 24 h of treatment.
as §1

T1 sequence (P04626 23-1255): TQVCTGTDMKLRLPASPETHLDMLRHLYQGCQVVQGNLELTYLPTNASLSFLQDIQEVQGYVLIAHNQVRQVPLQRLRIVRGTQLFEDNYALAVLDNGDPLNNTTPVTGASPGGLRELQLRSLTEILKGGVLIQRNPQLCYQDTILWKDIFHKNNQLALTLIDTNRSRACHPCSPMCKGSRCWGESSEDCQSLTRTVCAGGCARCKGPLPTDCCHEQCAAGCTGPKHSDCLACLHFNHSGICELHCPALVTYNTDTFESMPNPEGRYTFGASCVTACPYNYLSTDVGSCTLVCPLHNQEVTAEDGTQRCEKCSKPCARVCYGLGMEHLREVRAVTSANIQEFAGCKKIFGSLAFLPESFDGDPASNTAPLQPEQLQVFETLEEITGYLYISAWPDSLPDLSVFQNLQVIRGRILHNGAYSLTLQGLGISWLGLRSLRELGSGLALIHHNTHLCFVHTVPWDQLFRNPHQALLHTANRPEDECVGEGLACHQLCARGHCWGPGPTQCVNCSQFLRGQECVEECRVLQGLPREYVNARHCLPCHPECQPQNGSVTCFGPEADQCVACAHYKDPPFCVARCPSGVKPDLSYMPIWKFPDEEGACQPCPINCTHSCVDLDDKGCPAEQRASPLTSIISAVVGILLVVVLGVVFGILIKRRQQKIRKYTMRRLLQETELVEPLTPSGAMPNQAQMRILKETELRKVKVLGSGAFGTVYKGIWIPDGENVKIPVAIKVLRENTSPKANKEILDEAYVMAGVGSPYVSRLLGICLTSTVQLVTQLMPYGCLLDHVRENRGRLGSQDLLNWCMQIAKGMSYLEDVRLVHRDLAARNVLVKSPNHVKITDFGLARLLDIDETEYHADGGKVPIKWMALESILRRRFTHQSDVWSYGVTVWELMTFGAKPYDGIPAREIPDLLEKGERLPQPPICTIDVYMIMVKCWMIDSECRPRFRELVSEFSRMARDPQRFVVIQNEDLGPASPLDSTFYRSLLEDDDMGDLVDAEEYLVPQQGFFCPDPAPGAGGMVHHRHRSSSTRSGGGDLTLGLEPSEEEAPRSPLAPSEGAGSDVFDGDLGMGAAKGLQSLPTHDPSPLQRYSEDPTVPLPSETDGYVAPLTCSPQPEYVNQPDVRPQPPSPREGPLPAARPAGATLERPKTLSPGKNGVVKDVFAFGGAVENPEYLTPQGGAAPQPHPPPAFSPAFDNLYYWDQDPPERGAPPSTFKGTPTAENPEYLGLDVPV

| Compound | IC50 [1] [µM] | IC50 [2] [µM] | IC50 (HER2 kinase) [µM] | cytotoxicity against normal breast cells (cell viability) [3] | cytotoxicity against normal breast cells (cell viability) ([3]; listed as ZINC31178641) |
| --- | --- | --- | --- | --- | --- |
| CS(=O)(=O)CCNCc1ccc(-c2ccc3ncnc(Nc4ccc(OCc5cccc(F)c5)c(Cl)c4)c3c2)o1 [lapatinib, Lapatinib, reference compound] | 0.45 ± 0.03 | 0.38 ± 0.02 |  |  |  |
| CC(C)=CC[C@@H](O)/C(C)=C/Cc1cc(C(=O)O)cc(C/C=C(\C)CO)c1O [ZINC31166919, 4-hydroxy-3-[(2E,4R)-4-hydroxy-3,7-dimethyl-octa-2,6-dienyl]-5-[(E)-4-hydroxy-3-methyl-but-2-enyl]be] | 6.78 ± 0.68 | 8.61 ± 0.45 | 2.63 ± 0.03 | slightly enhanced cytotoxicity with increase of concentration |  |
| C/C(=C\Cc1cc(C(=O)O)cc(CC[C@H](C)C(=O)/C=C/C(C)(C)O)c1O)CO [ZINC49181256, 4-hydroxy-3-[(E,3S)-7-hydroxy-3,7-dimethyl-4-oxo-oct-5-enyl]-5-[(E)-4-hydroxy-3-methyl-but-2-enyl]be] | > 50 | > 50 | 9.18 ± 0.01 |  |  |
| CC(C)=CCC/C(C)=C/Cc1c(O)cc2c(c1O)C(=O)CC(c1ccc(O)c(O)c1)O2 (stereo not drawn) [ZINC15122021, 2-(3,4-dihydroxyphenyl)-6-[(2E)-3,7-dimethylocta-2,6-dienyl]-5,7-dihydroxy-2,3-dihydrochromen-4-one] | 4.11 ± 0.95 | 1.22 ± 0.05 | 0.18 ± 0.002 | little cytotoxicity; also recorded: low cytotoxicity |  |
| CC(C)=CCC/C(C)=C/Cc1c(O)cc2c(c1O)C(=O)[C@H](O)[C@@H](c1ccc(O)cc1)O2 [ZINC13378641, (2R,3R)-6-[(2E)-3,7-dimethylocta-2,6-dienyl]-3,5,7-trihydroxy-2-(4-hydroxyphenyl)chroman-4-one] | 18.6 ± 2.06 | 26.5 ± 1.62 | 3.71 ± 0.03 | little cytotoxicity | low cytotoxicity |
| O=C(O)c1cccc(C(=O)CC[C@@H]2O[C@@H](n3cnc4c(=O)[nH]cnc43)[C@@H](O)[C@H]2O)c1 [ZINC35456515, 3-[3-[(2S,3R,4S,5R)-3,4-dihydroxy-5-(6-hydroxypurin-9-yl)tetrahydrofuran-2-yl]propanoyl]benzoic] | > 50 | > 50 | > 10 |  |  |
